Laboratory results from patent US8722665B2, “Cinnamido-pyrrolo[2,1-C][1,4]benzodiazepines as potential anticancer agents and process for the preparation thereof” (Council of Scientific & Industrial Research, priority 2008, dated 2014).

What was measured:
Type in all cases: cell-based, human
CNS cell lines = assay: In vitro cytotoxicity (SRB), cancer panel; details: average of six to eight cell lines, 48 h exposure
Experimental: (§1) The compounds were evaluated for in vitro anticancer activity against sixty human tumour cells derived from nine cancer types (leukemia, non-small-cell lung, colon, CNS, melanoma, ovarian, prostate, and breast cancer) as shown in Table 1a. For each compound, dose response curves for each cell line were measured at a minimum of five concentrations at 10 fold dilutions. A protocol of 48 h continuous drug exposure was used and a sulforhodamine B (SRB) protein assay was used to estimate cell viability or growth. The concentration causing 50% cell growth inhibition (GI50), total cell growth inhibition (TGI 0% growth) and 50% cell death (LC50, −50% growth) compared with the control was calculated. The Log10 GI50 (concentration in mol/L causing 50% growth inhibition) values for Cinnamido-pyrrolo[2,1-c][1,4]benzodiazepine (8b) is listed in Table 2.

Melanoma cell lines = assay: In vitro cytotoxicity (SRB), cancer panel; details: average of six to eight cell lines, 48 h exposure
Experimental: as §1

Leukemia cell lines = assay: In vitro cytotoxicity (SRB), cancer panel; details: average of six to eight cell lines, 48 h exposure
Experimental: as §1

Ovarian cell lines = assay: In vitro cytotoxicity (SRB), cancer panel; details: average of six to eight cell lines, 48 h exposure
Experimental: as §1

Prostate cell lines = assay: In vitro cytotoxicity (SRB), cancer panel; details: average of six to eight cell lines, 48 h exposure
Experimental: as §1

Breast cell lines = assay: In vitro cytotoxicity (SRB), cancer panel; details: average of six to eight cell lines, 48 h exposure
Experimental: as §1

Renal cell lines = assay: In vitro cytotoxicity (SRB), cancer panel; details: average of six to eight cell lines, 48 h exposure
Experimental: as §1

[1] = test system: Non-small-cell lung cell lines; assay: In vitro cytotoxicity (SRB), cancer panel; details: average of six to eight cell lines, 48 h exposure
Experimental: as §1

Colon cell lines = assay: In vitro cytotoxicity (SRB), cancer panel; details: average of six to eight cell lines, 48 h exposure
Experimental: as §1

U251 = assay: In vitro cytotoxicity (SRB); details: U251 (CNS); 48 h continuous drug exposure
Experimental: as §1

COc1cc(/C=C/C(=O)N2CCN(C(=O)c3cc(OC)c(OC)c(OC)c3)CC2)ccc1OCCCOc1cc2c(cc1OC)C(=O)N1CCC[C@H]1C=N2 [8b, 7-methoxy-8-{3-(2-methoxy-4-(E)-3-oxo-3-[4-(3,4,5-trimethoxybenzoyl)piperazino]-1-propenylphenoxy)propoxy}-(11aS)-2,3,5,11^a-tetrahydro-5H-pyrrolo[2,1-c][1,4]benzo-diazepine-5-one]
Log10 GI50 (CNS cell lines): −6.78 mol/L
Log10 GI50 (Melanoma cell lines): −6.64 mol/L
Log10 GI50 (Leukemia cell lines): −6.77 mol/L
Log10 GI50 (Ovarian cell lines): −6.36 mol/L
Log10 GI50 (Prostate cell lines): −6.44 mol/L
Log10 GI50 (Breast cell lines): −6.51 mol/L
Log10 GI50 (Renal cell lines): −6.20 mol/L
Log10 GI50 [1]: −6.31 mol/L
Log10 GI50 (Colon cell lines): −6.43 mol/L
GI50 (U251): 270 nM
